Source: PMC12655529, “Serendipitous Hinge Modulation Hypothetically Reprograms Caerin 1.1-LC Antibacterial Mechanism and Gram-Negative Selectivity” (Pharmaceutics, 2025)
Converted amounts (≈) assume the structure as drawn. Square brackets hold non-standard residues; d marks the D form. Ends that are not written are not given here. Peptide text beside a SMILES is read from it.

Columns and labels:
MRSA NCTC 12493 = assay type: cell-based, Staphylococcus aureus
Description: (§1) The antimicrobial activities of the peptides were evaluated by determining their minimal inhibitory concentration (MIC) and minimal bactericidal concentration (MBC) values following reported protocols [20]. The tested microorganisms included seven Gram-negative bacterial strains (Escherichia coli ATCC 8739, E. coli ATCC-BAA 2340, E. coli NCTC 13846, Klebsiella pneumoniae ATCC 43816, K. pneumoniae ATCC BAA-2342, Pseudomonas aeruginosa ATCC 9027, Acinetobacter baumannii ATCC BAA-747), three Gram-positive bacterial strains (Staphylococcus aureus ATCC 6538, Enterococcus faecalis NCTC 12697, MRSA NCTC 12493, and the fungal strain Candida albicans ATCC 10231. For the assay, each bacterial strain was cultured overnight at 37 °C in 100 mL of medium in a flask. The cultures were then subcultured to reach the logarithmic growth phase and diluted to 5 × 10^5 CFU/mL. Peptide samples were serially diluted two-fold in microplates, with concentrations ranging from 128 μM to 1 μM. The diluted bacterial suspensions were mixed with the peptide solutions and incubated overnight at 37 °C. The MIC values were determined by measuring the absorbance of each well using a Synergy HT plate reader (Agilent, Cheshire, UK). For MBC determination, aliquots from wells showing no visible growth were inoculated onto agar plates to assess bacterial viability. Each experiment was repeated independently three times and conducted in three independent replicates.

[1] = test system: Klebsiella pneumoniae ATCC 43816; assay type: cell-based; conditions: ATCC 43816
Description: as §1

E. coli NCTC 13846 = assay type: cell-based, Escherichia coli
Description: as §1

[2] = test system: Acinetobacter baumannii ATCC BAA-747; assay type: cell-based; conditions: ATCC BAA-747
Description: as §1

E. coli (ATCC-BAA 2340) = assay type: cell-based, Escherichia coli; conditions: ATCC-BAA 2340
Description: The peptide sensitivity was determined in different salt- and serum-containing environments. Bacterial strains were prepared following the MIC detection protocol described previously. To evaluate peptide sensitivity under physiological conditions, various concentrations of salt ions (150 mM NaCl, 4.5 mM KCl, 2 mM CaCl2, 1 mM MgCl2, 8 µM ZnCl2, 6 µM NH4Cl, or 4 µM FeCl3) and serum (10% FBS) were prepared in McCartney bottles prior to the addition of bacterial suspensions. The subcultured bacterial suspensions were then introduced to these modified media conditions. For MIC determination, the treated bacterial suspensions were diluted and dispensed into 96-well plates containing peptide solutions at graded concentrations. This assay allowed for the detection of potential alterations in MIC values, serving as an indicator of peptide sensitivity under different physiological conditions. All experiments were independently repeated three times, each with three replicates.

[3] = test system: Enterococcus faecalis NCTC 12697; assay type: cell-based; conditions: NCTC 12697
Description: as §1

Gram-positive bacteria = test: Geometric mean MIC and therapeutic index, Gram-positive; assay type: cell-based; conditions: geometric mean of MICs
[4] = test system: Staphylococcus aureus ATCC 6538; assay type: cell-based; conditions: ATCC 6538
Gram-negative bacteria = test: Geometric mean MIC and therapeutic index, Gram-negative; assay type: cell-based; conditions: geometric mean of MICs
horse red blood cells = test: Haemolysis assay; assay type: cell-based; conditions: concentration inducing 10% haemolysis of horse erythrocytes; 4% (v/v) in PBS, 2 h, 37 °C, absorbance 570 nm; no haemolysis at maximum testing concentration (128 μM) recorded as 256 μM
Description: The peptide cytotoxicity against mammalian erythrocytes was evaluated by haemolysis assay on horse red blood cells (E&O Laboratories Ltd., Falkirk, UK). Fresh horse blood was washed three times with PBS and resuspended to a final concentration of 4% (v/v) in PBS. The diluted blood suspension was then mixed with peptide solutions at varying concentrations and incubated for 2 h at 37 °C. Red blood cell suspensions treated with 0.1% Triton X-100 and PBS were used as controls. The Triton X-100-treated suspension was the positive control (for 100% haemolysis), while the PBS-treated suspension was the blank control. Following incubation, the mixtures were centrifuged at 1000× g for 10 min to separate erythrocytes from the supernatant. The absorbance of the supernatants was detected at 570 nm. The percentage haemolysis was calculated by following the equationPercentage Haemolysis = (AbsSample − AbsBlank)/(AbsPositive − AbsBlank) × 100%

E. coli ATCC BAA-2340 = assay type: cell-based, Escherichia coli
Description: as §1

[5] = test system: Escherichia coli ATCC 8739; assay type: cell-based; conditions: ATCC 8739
Description: as §1

[6] = test system: Pseudomonas aeruginosa ATCC 9027; assay type: cell-based
[7] = test system: K. pneumoniae ATCC BAA-2342; assay type: cell-based, Klebsiella pneumoniae
Description: as §1

| Molecule | MBC, MRSA (NCTC 12493) (MRSA NCTC 12493) [µM] | MIC, MRSA (NCTC 12493) (MRSA NCTC 12493) [µM] | MBC, K. pneumoniae (ATCC 43816) [1] [µM] | MIC, K. pneumoniae (ATCC 43816) [1] [µM] | MBC, E. coli (NCTC 13846) (E. coli NCTC 13846) [µM] | MIC, E. coli (NCTC 13846) (E. coli NCTC 13846) [µM] | MBC, A. baumannii (ATCC BAA-747) [2] [µM] | MIC, A. baumannii (ATCC BAA-747) [2] [µM] | MBC, E. faecalis (NCTC 12697) [3] [µM] | MIC, E. faecalis (NCTC 12697) [3] [µM] | GM MIC Gram-Positive (Gram-positive bacteria) [µM] | MBC, S. aureus (ATCC 6538) [4] [µM] | MIC, S. aureus (ATCC 6538) [4] [µM] | GM MIC Gram-Negative (Gram-negative bacteria) [µM] | HC10 (horse red blood cells) [µM] | MBC, E. coli (ATCC BAA-2340) (E. coli ATCC BAA-2340) [µM] | MIC, E. coli (ATCC BAA-2340) (E. coli ATCC BAA-2340) [µM] | MBC, E. coli (ATCC 8739) [5] [µM] | MIC, E. coli (ATCC 8739) [5] [µM] | MBC, P. aeruginosa (ATCC 9027) [6] | other results |
| --- | --- | --- | --- | --- | --- | --- | --- | --- | --- | --- | --- | --- | --- | --- | --- | --- | --- | --- | --- | --- | --- |
| CC[C@H](C)[C@H](NC(=O)[C@H](CCCCN)NC(=O)[C@@H]1CCCN1C(=O)[C@@H](CC(C)C)NC(=O)[C@H](C)NC(=O)[C@H](CCCCN)NC(=O)[C@@H]1CCCN1C(=O)[C@@H](NC(=O)[C@@H](NC(=O)[C@H](CC(C)C)NC(=O)[C@H](CCCCN)NC(=O)[C@H](CC(C)C)NC(=O)[C@H](CO)NC(=O)CNC(=O)[C@H](CC(C)C)NC(=O)[C@@H](NC(=O)[C@H](CO)NC(=O)[C@H](CC(C)C)NC(=O)[C@H](CC(C)C)NC(=O)CN)C(C)C)[C@@H](C)CC)C(C)C)C(=O)N[C@@H](C)C(=O)N[C@@H](CCC(=O)O)C(=O)N[C@@H](CCCCN)C(=O)N[C@@H](CC(C)C)C(N)=O [Caerin 1.1-LC PKAL(D)P] (H-GLLSVLGSLKLIVPKA[dL]PKIAEKL-NH2; N-terminus assumed) | 8 (≈ 20 µg/mL) | 4 (≈ 10 µg/mL) | 4 (≈ 10 µg/mL) | 4 (≈ 10 µg/mL) | 8 (≈ 20 µg/mL) | 8 (≈ 20 µg/mL) | 32 (≈ 80 µg/mL) | 32 (≈ 80 µg/mL) | >128 | >128 | 64 | 32 (≈ 80 µg/mL) | 32 (≈ 80 µg/mL) | 4.87 | 43.4 | 2 (≈ 5 µg/mL) | 2 (≈ 5 µg/mL) | 2 (≈ 5 µg/mL) | 2 (≈ 5 µg/mL) | 4/4 µM | MIC, Ca^2+ (E. coli (ATCC-BAA 2340)): 128 µM (≈ 320 µg/mL); MIC, Control (E. coli (ATCC-BAA 2340)): 2 µM (≈ 5 µg/mL); MIC, FBS (E. coli (ATCC-BAA 2340)): 16 µM (≈ 40 µg/mL); MIC, Fe^3+ (E. coli (ATCC-BAA 2340)): 2 µM (≈ 5 µg/mL); MIC, K^+ (E. coli (ATCC-BAA 2340)): 2 µM (≈ 5 µg/mL); MIC, Mg^2+ (E. coli (ATCC-BAA 2340)): 16 µM (≈ 40 µg/mL); MIC, NH4^+ (E. coli (ATCC-BAA 2340)): 2 µM (≈ 5 µg/mL); MIC, Na^+ (E. coli (ATCC-BAA 2340)): 4 µM (≈ 10 µg/mL); MIC, P. aeruginosa (ATCC 9027) [6]: 4/4 µM; MBC, K. pneumoniae (ATCC BAA-2342) [7]: 4 µM (≈ 10 µg/mL); MIC, K. pneumoniae (ATCC BAA-2342) [7]: 4 µM (≈ 10 µg/mL) |
| GLLSVLGSLKLIVAHVVALIAEKL-NH2 [Caerin 1.1-LC 2P-2A] | >128 | >128 | >128 | >128 | >128 | >128 | >128 | >128 | >128 | >128 | 256 | >128 | >128 | 256 | 256 | >128 | >128 | >128 | >128 | >128 µM | MIC, P. aeruginosa (ATCC 9027) [6]: >128 µM; MBC, K. pneumoniae (ATCC BAA-2342) [7]: >128 µM; MIC, K. pneumoniae (ATCC BAA-2342) [7]: >128 µM |
| GLLSVLGSLKKIVPHVVPLIAEKL-NH2 [Caerin 1.1-LC 11K] | 8 | 8 | 32 | 16 | 8 | 4 | 32 | 32 | 128 | 128 | 20.1 | 32 | 8 | 8.8 | 35.8 | 8 | 2 | 16 | 8 | 32 µM | MIC, P. aeruginosa (ATCC 9027) [6]: 16 µM; MBC, K. pneumoniae (ATCC BAA-2342) [7]: 16 µM; MIC, K. pneumoniae (ATCC BAA-2342) [7]: 8 µM |
| GLLSVLGSLKKIVPHVVPWIAKKL-NH2 [Caerin 1.1-LC 11K.12K.19W] | 2 | 2 | 4 | 4 | 4 | 2 | 4 | 4 | 32 | 16 | 2.97 | 2 | 2 | 4 | 10.5 | 2 | 2 | 2 | 2 | 4/4 µM | MIC, Ca^2+ (E. coli (ATCC-BAA 2340)): 8 µM; MIC, Control (E. coli (ATCC-BAA 2340)): 4 µM; MIC, FBS (E. coli (ATCC-BAA 2340)): 8 µM; MIC, Fe^3+ (E. coli (ATCC-BAA 2340)): 4 µM; MIC, K^+ (E. coli (ATCC-BAA 2340)): 4 µM; MIC, Mg^2+ (E. coli (ATCC-BAA 2340)): 4 µM; MIC, NH4^+ (E. coli (ATCC-BAA 2340)): 4 µM; MIC, Na^+ (E. coli (ATCC-BAA 2340)): 4 µM; MIC, P. aeruginosa (ATCC 9027) [6]: 4/4 µM; MBC, K. pneumoniae (ATCC BAA-2342) [7]: 4 µM; MIC, K. pneumoniae (ATCC BAA-2342) [7]: 4 µM |
